Source: patent US9416141B2 (University of Washington through its Center for …, priority 2012, dated 2016)
Where a name gives a salt, the structure may show the parent alone.

System: hair cells
Assay: Hair cell toxicity assay in zebrafish (neomycin-induced hair cell death, DASPEI staining of neuromasts)
Type: in vivo
Details: Danio rerio; for EC50: zebrafish larvae 5-7 dpf, 1 h pre-treatment, then 200 micromolar neomycin + test compound 30 min, read-out: HC50 (concentration that would produce 50% hair cell survival); for Emax at 25 µM: maximum observed @ 25 μM test compound; for Emax at 2.8 µM: maximum observed @ 2.8 μM test compound
How it was run: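 Zebrafish larvae 5-7 dpf pre-treated 1 h with compound (0.010-25 μM), then 30 min with 200 μM neomycin plus compound. DASPEI stained 10 neuromasts per fish, scored 0-2 (total 0-20), normalised to vehicle controls as % hair cell survival. HC50 linearly interpolated if survival reached ≥50%; HCmax is maximum survival.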

[1] = 200 micromolar neomycin, read-out: Max HC Protection (HCmax, % hair cell survival)

With CC[N+]1(CC2CCCCC2)CCc2c(sc(NC(=O)Nc3ccc(Cl)cc3)c2C(N)=O)C1 (stereo not shown) [Example 195, 3-Carbamoyl-2-[3-(4-chlorophenyl)ureido]-6-(cyclohexylmethyl)-6-ethyl-4,5,6,7-tetrahydrothieno[2,3-c]pyridin-6-ium trifluoroacetate] as the compound, how does the Emax at 0.9 µM (maximum observed @ 0.9 μM test compound, 200 micromolar neomycin, read-out: Max HC Protection (HCmax, % hair cell survival)) read?
The Emax at 0.9 µM was 74%.

What about the EC50 of the same compound?
The EC50 was < 1 µM.

With CC[N+]1(C)C2CCC1c1sc(NC(=O)Nc3ccc(Cl)cc3)c(C(N)=O)c1C2 (racemic) [Example 187, (+/−)-3-Carbamoyl-2-[3-(4-chlorophenyl)ureido]-9-ethyl-9-methyl-5,6,7,8-tetrahydro-4H-thienocyclohepten-5,8-iminium chloride] as the compound, how does the Emax at 25 µM [1] read?
The Emax at 25 µM was 72%.

What about the EC50 of the same compound?
The EC50 was 1 to 10 µM.

How did the Emax at 8.3 µM (maximum observed @ 8.3 μM test compound, 200 micromolar neomycin, read-out: Max HC Protection (HCmax, % hair cell survival)) turn out when CCN1CCc2c(sc(NC(=O)Nc3ccc(Cl)cc3)c2C(=O)NCC2CC2)C1 [Example 97, 2-[3-(4-Chlorophenyl)ureido]-N-(cyclopropylmethyl)-6-ethyl-4,5,6,7-tetrahydrothieno[2,3-c]pyridine-3-carboxamide hydrochloride] was run?
The Emax at 8.3 µM was 37%.

Which Emax at 2.8 µM [1] does the source give for CC1(CN2CCc3c(sc(NC(=O)Nc4ccc(Cl)cc4)c3C(N)=O)C2)CC1 [Example 63, 2-[3-(4-Chlorophenyl)ureido]-6-[(1-methylcyclopropyl)methyl]-4,5,6,7-tetrahydrothieno[2,3-c]pyridine-3-carboxamide hydrochloride] here?
Its Emax at 2.8 µM is 54%.

And the EC50?
Its EC50 is 1 to 10 µM.

With CC(C)NC(=O)CCN1CCc2c(sc(NC(=O)Nc3ccc(Cl)cc3)c2C(N)=O)C1 [Example 57, 2-[3-(4-Chlorophenyl)ureido]-6-[3-(isopropylamino)-3-oxopropyl]-4,5,6,7-tetrahydrothieno[2,3-c]pyridine-3-carboxamide hydrochloride] as the compound, how does the Emax at 2.8 µM [1] read?
Its Emax at 2.8 µM is 50%.

And the EC50?
Its EC50 is 1 to 10 µM.

For CN1C2CCC1c1sc(NC(=O)Nc3ccc(Cl)cc3)c(C(N)=O)c1C2 (single isomer, unassigned; (-)) [Example 127, (−)-2-[3-(4-chlorophenyl)ureido]-9-methyl-5,6,7,8-tetrahydro-4H-5,8-epiminocyclohepta[b]thiophene-3-carboxamide hydrochloride], which EC50 is on record?
The EC50 was 1 to 10 µM.

How did the Emax at 2.8 µM [1] turn out when CC(C)(C)OC(=O)NCCCN1CCc2c(sc(NC(=O)Nc3ccc(C(=O)c4ccccc4)cc3)c2C(N)=O)C1 [Example 208, tert-Butyl N-[3-(2-{[(4-benzoylphenyl)carbamoyl]amino}-3-carbamoyl-4H,5H,6H,7H-thieno[2,3-c]pyridin-6-yl)propyl]carbamate] was run?
Its Emax at 2.8 µM is 56%.

What about the EC50 of the same compound?
The EC50 was 1 to 10 µM.

What does the source list for CC(C)NC(=O)CCCN1CCc2c(sc(NC(=O)Nc3ccc(Cl)cc3)c2C(N)=O)C1 [Example 25, 2-[3-(4-Chlorophenyl)ureido]-6-[4-(isopropylamino)-4-oxobutyl]-4,5,6,7-tetrahydrothieno[2,3-c]pyridine-3-carboxamide hydrochloride]?
Emax at 2.8 µM [1]: 57%; EC50: 1 to 10 µM

How did the Emax at 25 µM [1] turn out when CC(C(=O)O)N1CCc2c(sc(NC(=O)Nc3ccc(Cl)cc3)c2C(N)=O)C1 (racemic) [Example 62, (+/−)-2-{3-Carbamoyl-2-[3-(4-chlorophenyl)ureido]-4,5-dihydrothieno[2,3-c]pyridin-6(7H)-yl}propanoic acid hydrochloride] was run?
Its Emax at 25 µM is 29%.

Which results are given for CC12CCC(C)(N1)c1sc(NC(=O)Nc3ccc(Cl)cc3)c(C(N)=O)c1C2 (racemic) [Example 123, (+/−)-2-[3-(4-Chlorophenyl)ureido]-5,8-dimethyl-5,6,7,8-tetrahydro-4H-5,8-epiminocyclohepta[b]thiophene-3-carboxamide trifluoroacetate]?
Emax at 2.8 µM [1]: 60%; EC50: < 1 µM

For C[N+]1(CC2CCC2)C2CCC1c1sc(NC(=O)Nc3ccc(Cl)cc3)c(C(N)=O)c1C2 (racemic) [Example 189, (+/−)-3-Carbamoyl-2-[3-(4-chlorophenyl)ureido]-9-(cyclobutylmethyl)-9-methyl-5,6,7,8-tetrahydro-4H-thienocyclohepten-5,8-iminium trifluoroacetate], which Emax at 25 µM [1] is on record?
The Emax at 25 µM was 96%.

And the EC50?
Its EC50 is 1 to 10 µM.
